Test results published in patent US12673936B2, “Isoindolinone compounds, and uses thereof” (HANGZHOU GLUBIO PHARMACEUTICAL CO., LTD., priority 2021, dated 2026).
Like-named read-outs stand apart in the source and are kept apart here.

Tests used:
Type in all cases: cell-based
HiBiT tagged CK1α = HiBiT tagged CK1α (Homo sapiens, UniProt P48729+Q96SW2); experiment: CK1α degradation assay (HiBiT assay); settings: 20 hours; for Dmax: HT-1080, HT-1080 cells; for DC50: concentration at 50% CK1α degradation
Procedure, shortened: (§1)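 HT-1080 cells stably expressing wild-type CRBN, GSPT1A(1-138)/G575N and HiBiT-tagged CK1α or GSPT1, ~10,000/well, treated with compound from 3.162×10^-4 μM to 10 μM (3.16-fold steps). HiBiT luminescence normalized to DMSO as percent of control.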

[1] = KG-1a cell proliferation assay (CTG cell viability, counter screen for GSPT1-mediated cytotoxicity); settings: human, KG-1a cells (AML cell line harboring p53 mutation), lowest cell viability, highest concentration 10 μM, read-out: CTG cell viability assay KG1a: Ymin
Excerpt: (§2) KG-1a Cell Proliferation Assay
(§3) On the other hand, most AML cell lines were reported to be sensitive to GSPT1 degradation induced by CC-885 or CC-90009 regardless of their p53 mutational status (Matyskiela et al., Nature (2016) 535:252-257; Surka et al., Blood (2021) 137 (5): 661-677). Because the subtle to moderate degradation of GSPT1 induced by CK1α degraders with mild activity towards GSPT1 might still result in toxicity in human, a counter screen using an AML cell line harboring p53 mutation such as KG-1a (ATCC Cat #CCL-246.1), was performed to determine the GSPT1-mediated cytotoxicity in vitro.
(§4) The following is an example of an assay that can be used to determine the potential GSPT1-dependent cytotoxcity of test compounds that degrade GSPT1. KG-1a cells were seeded into a 384-well plate (Cat #3764, Corning) pre-spotted with DMSO or test compounds. Increasing concentrations of test compounds (ranging from […] to 10 μM at a 3.162-fold increment in a 10-point dose response assay; ranging from […] to 10 μM at a 3.162-fold increment in a 11-point dose response assay) or DMSO were dispensed into an empty 384-well plate using an a D300e digital dispenser (Tecan) or an Echo Acoustic Liquid Handler (Beckman Coulter). About 2,000 cells in 50 μL of culture media (IMDM plus 10% heat-inactivated FBS) were seeded per well. Assay plates were incubated at 37° C. with 5% CO2 for 120 hours. After that, 20 μL of the CellTiter-Glo Luminescent Cell Viability Assay Reagent (Cat #G7573, Promega) was added to each well and incubated at room temperature for 30 minutes. Luminescence was then measured with EnVision Multimode Plate Reader (PerkinElmer) or a PHERAstar plate reader (BMG LABTECH). All cell growth inhibition curves were processed using Collaborative Drug Discovery Vault softwares (Burlingame, CA, www.collaborativedrug.com). Cell viability reads in compound-treated wells were normalized to that of DMSO control and expressed as Percent of Control (PoC, y). A four Parameter Logistic Model was used to determine the compound's EC50 and DC50, using the following equation: […]

MV4-11 cells = experiment: MV4-11 cell proliferation assay (CTG cell viability); settings: 120 hours, read-out: CTG cell viability assay_MV4-11: IC50
Procedure: MV4-11 Cell Proliferation Assay
The following is an example of an assay that can be used to determine the dose-dependent, anti-proliferative activity of CK1α degradating compounds in an AML cell line such as MV4-11 (ATCC Cat #CRL-9591).
MV4-11 cells were seeded into a 384-well plate (Cat #3764, Corning) pre-spotted with DMSO or test compounds. Increasing concentrations of test compounds (ranging from 1×10^−3 μM to 10 μM at a 3.162-fold increment in a 10-point dose response assay; ranging from 3.162×10^−4 μM to 10 μM at a 3.162-fold increment in a 11-point dose response assay) or DMSO were dispensed into an empty 384-well plate using an a D300e digital dispenser (Tecan) or an Echo Acoustic Liquid Handler (Beckman Coulter). About 2,000 cells in 50 μL of culture media (IMDM plus 10% heat-inactivated FBS) were seeded per well. Assay plates were incubated at 37° C. with 5% CO2 for 120 hours. After that, 20 μL of the CellTiter-Glo Luminescent Cell Viability Assay Reagent (Cat #G7573, Promega) was added to each well and incubated at room temperature for 30 minutes. Luminescence was then measured with an EnVision plate reader (PerkinElmer) or a PHERAstar plate reader (BMG LABTECH). All cell growth inhibition curves were processed using Collaborative Drug Discovery Vault softwares (Burlingame, CA, www.collaborativedrug.com).
Cell viability reads in compound-treated wells were normalized to that of DMSO control and expressed as Percent of Control (PoC, y). A four Parameter Logistic Model was used to determine the compound's EC50 and DC50, using the following equation:
[formula] • A==lowest cell viability read normalized to DMSO control in response to compound treatment, as determined by curve fit • B=cell viability read in DMSO control • C=EC50 • D=Hill Slope • x=compound concentration • EC50=the concentration of compound when y=(B−A)/2 • IC50=the concentration of the compound when y=50% of DMSO control • y=cell viability read normalized to DMSO control Ymin=(A/B)*100% • Ymin represents the lowest cell viability % that can be achieved by the compound treatment in the assay.

HiBiT tagged GSPT1 = HiBiT tagged GSPT1 (Homo sapiens, UniProt P15170+Q96SW2); experiment: GSPT1 degradation assay (HiBiT assay); settings: 20 hours, maximum GSPT1 degradation; for Dmax: HT-1080, HT-1080 cells
Procedure, shortened: as §1

KG-1a cells = experiment: KG-1a cell proliferation assay (CTG cell viability, counter screen for GSPT1-mediated cytotoxicity); settings: 120 hours, lowest cell viability, highest concentration 10 μM
Excerpt: as §2, §3, §4

HiBiT tagged CK1α, sequence (P48729 whole entry): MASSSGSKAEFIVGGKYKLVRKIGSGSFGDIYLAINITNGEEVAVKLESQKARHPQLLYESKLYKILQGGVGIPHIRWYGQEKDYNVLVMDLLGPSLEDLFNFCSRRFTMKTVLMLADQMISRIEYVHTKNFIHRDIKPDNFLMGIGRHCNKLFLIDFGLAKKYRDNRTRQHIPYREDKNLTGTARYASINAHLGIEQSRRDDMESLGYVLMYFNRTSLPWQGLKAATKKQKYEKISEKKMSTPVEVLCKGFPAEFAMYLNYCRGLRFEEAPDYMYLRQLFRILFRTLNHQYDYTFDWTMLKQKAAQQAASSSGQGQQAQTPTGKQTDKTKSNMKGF
HiBiT tagged CK1α, sequence (Q96SW2 whole entry): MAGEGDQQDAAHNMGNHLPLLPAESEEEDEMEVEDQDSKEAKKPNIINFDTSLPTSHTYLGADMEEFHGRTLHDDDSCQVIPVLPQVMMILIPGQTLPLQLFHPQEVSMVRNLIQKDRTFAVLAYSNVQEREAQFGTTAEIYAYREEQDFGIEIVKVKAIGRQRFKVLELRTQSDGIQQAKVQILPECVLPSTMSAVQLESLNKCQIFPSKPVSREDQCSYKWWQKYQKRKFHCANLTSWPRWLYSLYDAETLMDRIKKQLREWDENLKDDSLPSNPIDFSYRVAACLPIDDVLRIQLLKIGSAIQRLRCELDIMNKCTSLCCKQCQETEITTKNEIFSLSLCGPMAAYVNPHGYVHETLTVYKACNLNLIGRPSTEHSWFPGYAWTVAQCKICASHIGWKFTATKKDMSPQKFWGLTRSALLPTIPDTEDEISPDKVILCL
HiBiT tagged CK1α, sequence (Q16531 whole entry partner): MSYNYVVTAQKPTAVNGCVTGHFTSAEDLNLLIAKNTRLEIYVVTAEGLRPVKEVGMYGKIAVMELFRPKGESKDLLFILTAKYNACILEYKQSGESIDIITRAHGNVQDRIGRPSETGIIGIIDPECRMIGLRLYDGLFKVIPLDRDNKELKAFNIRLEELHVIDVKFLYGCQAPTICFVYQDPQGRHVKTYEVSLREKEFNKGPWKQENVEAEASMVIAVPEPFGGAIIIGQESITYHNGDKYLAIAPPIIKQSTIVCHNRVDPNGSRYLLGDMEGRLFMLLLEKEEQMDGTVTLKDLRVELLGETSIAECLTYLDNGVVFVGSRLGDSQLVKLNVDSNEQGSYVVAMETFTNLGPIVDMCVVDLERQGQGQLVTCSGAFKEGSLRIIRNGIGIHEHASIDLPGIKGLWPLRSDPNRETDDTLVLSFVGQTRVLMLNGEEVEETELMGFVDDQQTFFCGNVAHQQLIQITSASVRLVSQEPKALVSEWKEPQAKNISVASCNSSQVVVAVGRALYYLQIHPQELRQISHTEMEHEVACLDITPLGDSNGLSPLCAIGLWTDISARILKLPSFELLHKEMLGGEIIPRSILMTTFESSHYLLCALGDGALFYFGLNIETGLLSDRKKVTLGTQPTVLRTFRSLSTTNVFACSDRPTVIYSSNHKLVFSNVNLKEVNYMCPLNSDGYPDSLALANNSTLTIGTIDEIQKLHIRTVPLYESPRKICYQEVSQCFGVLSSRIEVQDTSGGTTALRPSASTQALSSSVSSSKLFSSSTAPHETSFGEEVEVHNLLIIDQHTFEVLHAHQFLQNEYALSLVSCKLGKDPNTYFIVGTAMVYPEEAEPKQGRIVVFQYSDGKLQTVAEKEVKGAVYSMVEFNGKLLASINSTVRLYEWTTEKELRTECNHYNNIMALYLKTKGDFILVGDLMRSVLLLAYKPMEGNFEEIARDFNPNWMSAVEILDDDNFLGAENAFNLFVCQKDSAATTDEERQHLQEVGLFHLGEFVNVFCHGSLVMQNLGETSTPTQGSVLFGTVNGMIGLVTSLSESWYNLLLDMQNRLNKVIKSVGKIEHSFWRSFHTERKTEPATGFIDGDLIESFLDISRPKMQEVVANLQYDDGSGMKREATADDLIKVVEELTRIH
HiBiT tagged GSPT1, sequence (P15170 whole entry): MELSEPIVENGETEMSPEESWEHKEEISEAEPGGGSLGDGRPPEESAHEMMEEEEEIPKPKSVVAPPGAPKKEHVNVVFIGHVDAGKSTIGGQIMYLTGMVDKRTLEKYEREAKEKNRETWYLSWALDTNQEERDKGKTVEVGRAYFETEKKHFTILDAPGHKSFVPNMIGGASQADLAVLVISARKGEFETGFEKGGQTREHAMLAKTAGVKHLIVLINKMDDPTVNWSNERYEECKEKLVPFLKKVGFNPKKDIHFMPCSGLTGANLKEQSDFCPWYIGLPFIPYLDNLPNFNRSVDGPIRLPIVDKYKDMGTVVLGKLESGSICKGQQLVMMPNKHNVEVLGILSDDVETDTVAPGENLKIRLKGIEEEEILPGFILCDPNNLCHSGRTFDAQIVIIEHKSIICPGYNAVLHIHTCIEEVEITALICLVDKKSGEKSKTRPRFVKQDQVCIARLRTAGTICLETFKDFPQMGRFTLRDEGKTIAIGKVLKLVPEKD
HiBiT tagged GSPT1, sequence (Q96SW2 whole entry): as the sequence (Q96SW2 whole entry) above
HiBiT tagged GSPT1, sequence (Q16531 whole entry partner): as the sequence (Q16531 whole entry partner) above

Dmax (HiBiT tagged CK1α; maximum CK1α degradation) | DC50 (HiBiT tagged CK1α; HT-1080 cells) | IC50 (MV4-11 cells; Homo sapiens) | Dmax (HiBiT tagged GSPT1) | HiBiT CK1α: Dmax (HiBiT tagged CK1α; HT-1080 cells, maximum CK1α degradation) | IC50 (MV4-11 cells) | HiBiT GSPT1: Dmax (HiBiT tagged GSPT1; HT-1080 cells) | Structure (SMILES) | viability at 120 h, 10 µM [1] | CTG cell viability assay KG1a: Ymin (KG-1a cells)
67% | 94.7 nM | 198 nM | 14.8% | – | – | – | O=C1CCC(N2Cc3cc(C(=O)N[C@H](c4ccc(Cl)cc4)C4CC(F)(F)C4)ccc3C2=O)C(=O)N1 (stereo in doubt) [Compound 35, N-((*S)-(4-chlorophenyl)(3,3-difluorocyclobutyl)methyl)-2-(2,6-dioxopiperidin-3-yl)-1-oxoisoindoline-5-carboxamide] | 92.1% | –
63.4% | 183 nM | 262 nM | 31.1% | – | – | – | O=C1CCC(N2Cc3cc(C(=O)NC(c4ccc(F)cc4)C4CC(F)(F)C4)ccc3C2=O)C(=O)N1 (stereo not drawn) [Compound 4, N-((3,3-difluorocyclobutyl)(4-fluorophenyl)methyl)-2-(2,6-dioxopiperidin-3-yl)-1-oxoisoindoline-5-carboxamide] | 90.9% | –
– | 81.7 nM | – | – | 71.8% | 112 nM | 28.6% | O=C1CCC(N2Cc3cc(C(=O)N[C@H](c4ccc(F)cc4)C4CCC4)ccc3C2=O)C(=O)N1 (stereo in doubt) [Compound 7, N—((*S)-cyclobutyl(4-fluorophenyl)methyl)-2-(2,6-dioxopiperidin-3-yl)-1-oxoisoindoline-5-carboxamide] | – | 91.7%
